The structures appear in SMILES notation. Values after ≈ are worked out from the molar mass of the structure shown. Bridge positions count the residues as written; N and C are the ends. Square brackets hold non-standard residues; d marks the D form. Peptide text beside a SMILES is read from it. * marks the point of attachment. hPhe(3,5-F2-4-CF3) = N[C@@H](CCc1cc(F)c(C(F)(F)F)c(F)c1)C(=O)O; hPhe(3-Cl-4-CF3) = N[C@@H](CCc1ccc(C(F)(F)F)c(Cl)c1)C(=O)O; NMeGly(cPent) = CN[C@H](C(=O)O)C1CCCC1; NMeCha = CN[C@@H](CC1CCCCC1)C(=O)O; Hyp = O=C(O)[C@@H]1C[C@@H](O)CN1; NMeF = CN[C@@H](Cc1ccccc1)C(=O)O; NMeD = CN[C@@H](CC(=O)O)C(=O)O; NMeL = CN[C@@H](CC(C)C)C(=O)O; NMeA = CN[C@@H](C)C(=O)O; Piperidide = C1CCN(*)CC1; Ac5c = NC1(C(=O)O)CCCC1; Aze = O=C(O)[C@@H]1CCN1; Sar = CNCC(=O)O; tBu = CC(C)(C)*

The data set in a line: Evaluation of solubility of cyclic peptide compound in phosphate buffer (Example 3-3). Type of data set: physicochemical. The settings on record: 50 mM phosphate buffer solution pH 6.5, 37°C, 22 to 24 hours. The method, then:
Evaluation of the solubility of the cyclic peptide compound was performed. To lyophilized powder of the compound, a 50 mM phosphate buffer solution (PPB: Phosphate buffer, pH 6.5) was added, and after shaking (at 37°C, 1800 rpm, for 22 to 24 hours), the mixed solution was filtered through a filter, and the compound concentration of the filtrate was measured by LC/MS/MS. Solubility was calculated from the measured compound concentration. The solubilities of the compounds 3, 4, 6, 7, and 8 were 11 µg/mL, 1 µg/mL, 1 µg/mL, 15 µg/mL, and 5 µg/mL, respectively.
The term Solubility denotes how much of the substance goes into solution per volume. A higher Solubility goes with much dissolved substance. In turn, `CC(C)C[C@@H]1NC(=O)[C@H](Cc2ccccc2)N(C)C(=O)[C@H](COC(C)(C)C)NC(=O)[C@H](Cc2ccccc2)N(C)C(=O)[C@H](C)N(C)C(=O)[C@H](CC(C)C)N(C)C(=O)[C@@H](C)NC(=O)C[C@@H](C(=O)N2CCCCC2)NC(=O)[C@H](Cc2ccccc2)N(C)C(=O)[C@H]([C@@H](C)O)NC(=O)[C@H](CC(C)C)N(C)C1=O` [Compound 4] ([dA][NMeL][NMeA][NMeF]S(tBu)[NMeF]L[NMeL]T[NMeF]D-Piperidide; lactam N-11) showed a Solubility of 1 µg/mL (≈ 0.697 µM).
The figure for `CC[C@H](C)[C@@H]1NC(=O)[C@H](CC(C)C)N(C)C(=O)C[C@@H](C(=O)N2CCCCC2)N(C)C(=O)[C@H](C2CCCC2)N(C)C(=O)C2(CCCC2)NC(=O)[C@@H]2CCCN2C(=O)[C@H](CCc2ccc(C(F)(F)F)c(Cl)c2)NC(=O)CN(C)C(=O)[C@H](CC2CCCCC2)N(C)C(=O)[C@@H]2CCN2C(=O)[C@H](C)N(C)C1=O` [Compound 6] ([NMeL]I[NMeA][Aze][NMeCha][Sar][hPhe(3-Cl-4-CF3)]P[Ac5c][NMeGly(cPent)][NMeD]-Piperidide; lactam N-11) is 1 µg/mL (≈ 0.688 µM); for `CCO[C@@H]1C[C@H]2C(=O)NC3(CCCC3)C(=O)N(C)[C@@H](C3CCCC3)C(=O)N(C)[C@H](C(=O)N(C)C)CC(=O)N(C)[C@@H](CC(C)C)C(=O)N[C@@H]([C@@H](C)CC)C(=O)N(C)[C@@H](C)C(=O)N3CC[C@H]3C(=O)N(C)[C@@H](CC3CCCCC3)C(=O)N(C)CC(=O)N[C@@H](CCc3cc(F)c(C(F)(F)F)c(F)c3)C(=O)N2C1` [Compound 8] ([NMeL]I[NMeA][Aze][NMeCha][Sar][hPhe(3,5-F2-4-CF3)][Hyp](Et)[Ac5c][NMeGly(cPent)][NMeD]-NMe2; lactam N-11) it is 5 µg/mL (≈ 3.43 µM).

Source of the values: EP4431115A1, “COMPOUND PHARMACEUTICAL PREPARATION CONTAINING OIL COMPONENT COMPRISING POLYOXYETHYLENE STRUCTURE” (CHUGAI SEIYAKU KABUSHIKI KAISHA, priority 2022, dated 2023).
